Test: refractive index (other wavelength) (dimensionless); xn = mol fraction of the nth substance listed
Details: 85 kPa, Liquid, Wavelength=632.8 nm, minimum deviation angle

CCCCCCCC[n+]1ccn(C)c1.F[B-](F)(F)F [1-methyl-3-octylimidazolium tetrafluoroborate] + CCCCCO
Details	refractive index
281.39 K, x1 = 0.012	1.4139
281.39 K, x1 = 0.339	1.4262
282.13 K, x1 = 0.014	1.4137
282.13 K, x1 = 0.33	1.4257
282.87 K, x1 = 0.015	1.4135
282.87 K, x1 = 0.32	1.4252
283.57 K, x1 = 0.018	1.4134
283.57 K, x1 = 0.315	1.4248
284.24 K, x1 = 0.019	1.4132
284.24 K, x1 = 0.305	1.4243
284.89 K, x1 = 0.02	1.413
284.89 K, x1 = 0.295	1.4238
285.51 K, x1 = 0.021	1.4128
285.51 K, x1 = 0.285	1.4233
286.09 K, x1 = 0.021	1.4126
286.09 K, x1 = 0.278	1.4229
286.64 K, x1 = 0.023	1.4125
286.64 K, x1 = 0.268	1.4224
287.13 K, x1 = 0.025	1.4124
287.13 K, x1 = 0.257	1.4219
287.58 K, x1 = 0.026	1.4123
287.58 K, x1 = 0.246	1.4214
287.98 K, x1 = 0.029	1.4123
287.98 K, x1 = 0.238	1.421
288.34 K, x1 = 0.03	1.4122
288.34 K, x1 = 0.23	1.4206
288.64 K, x1 = 0.032	1.4122
288.64 K, x1 = 0.224	1.4203
288.88 K, x1 = 0.034	1.4122
288.88 K, x1 = 0.217	1.42
289.09 K, x1 = 0.035	1.4122
289.09 K, x1 = 0.214	1.4198
289.29 K, x1 = 0.038	1.4123
289.29 K, x1 = 0.207	1.4195
289.44 K, x1 = 0.039	1.4123
289.44 K, x1 = 0.203	1.4193
289.63 K, x1 = 0.041	1.4123
289.63 K, x1 = 0.196	1.419
289.73 K, x1 = 0.042	1.4123
289.73 K, x1 = 0.191	1.4188
289.86 K, x1 = 0.044	1.4124
289.86 K, x1 = 0.19	1.4187
289.98 K, x1 = 0.047	1.4125
289.98 K, x1 = 0.186	1.4185
290.07 K, x1 = 0.05	1.4126
290.07 K, x1 = 0.181	1.4183
290.16 K, x1 = 0.052	1.4127
290.16 K, x1 = 0.179	1.4182
290.25 K, x1 = 0.055	1.4128
290.25 K, x1 = 0.175	1.418
290.31 K, x1 = 0.059	1.413
290.31 K, x1 = 0.173	1.4179
290.38 K, x1 = 0.062	1.4131
290.38 K, x1 = 0.168	1.4177
290.43 K, x1 = 0.066	1.4133
290.43 K, x1 = 0.166	1.4176
290.49 K, x1 = 0.069	1.4134
290.49 K, x1 = 0.161	1.4174
290.49 K, x1 = 0.598	1.4284
290.5 K, x1 = 1	1.4338
290.52 K, x1 = 0.071	1.4135
290.52 K, x1 = 0.156	1.4172
290.56 K, x1 = 0.076	1.4137
290.56 K, x1 = 0.1	1.4148
290.56 K, x1 = 0.151	1.417
290.59 K, x1 = 0.797	1.4313
290.59 K, x1 = 0.898	1.4327
290.6 K, x1 = 0.078	1.4138
290.6 K, x1 = 0.147	1.4168
290.61 K, x1 = 0.08	1.4139
290.61 K, x1 = 0.144	1.4167
290.65 K, x1 = 0.085	1.4141
290.65 K, x1 = 0.137	1.4164
290.66 K, x1 = 0.087	1.4142
290.66 K, x1 = 0.132	1.4162
290.67 K, x1 = 0.089	1.4143
290.67 K, x1 = 0.091	1.4144
290.67 K, x1 = 0.128	1.416
290.67 K, x1 = 0.13	1.4161
290.67 K, x1 = 0.697	1.4299
290.68 K, x1 = 0.094	1.4145
290.68 K, x1 = 0.096	1.4146
290.68 K, x1 = 0.098	1.4147
290.68 K, x1 = 0.118	1.4156
290.68 K, x1 = 0.121	1.4157
290.68 K, x1 = 0.123	1.4158
290.68 K, x1 = 0.125	1.4159
290.76 K, x1 = 0.498	1.4264
290.93 K, x1 = 0.396	1.4243
290.95 K, x1 = 0.2	1.4185
291.87 K, x1 = 1	1.4334
292.22 K, x1 = 0.898	1.4322
292.28 K, x1 = 0.598	1.4279
292.3 K, x1 = 0.797	1.4308
292.33 K, x1 = 0.498	1.4259
292.39 K, x1 = 0.697	1.4294
292.67 K, x1 = 0.396	1.4237
292.68 K, x1 = 0.2	1.4179
292.95 K, x1 = 0.1	1.414
293.43 K, x1 = 1	1.433
294.01 K, x1 = 0.498	1.4253
294.06 K, x1 = 0.898	1.4317
294.07 K, x1 = 0.598	1.4273
294.09 K, x1 = 0.797	1.4303
294.12 K, x1 = 0.697	1.4289
294.44 K, x1 = 0.396	1.423
294.76 K, x1 = 0.2	1.4171
295.04 K, x1 = 0.1	1.4132
295.05 K, x1 = 1	1.4325
295.73 K, x1 = 0.498	1.4248
295.84 K, x1 = 0.598	1.4268
295.89 K, x1 = 0.898	1.4312
295.91 K, x1 = 0.797	1.4299
295.92 K, x1 = 0.697	1.4283
296.31 K, x1 = 0.396	1.4224
296.55 K, x1 = 0.2	1.4165
296.68 K, x1 = 1	1.4321
297.32 K, x1 = 0.1	1.4124
297.61 K, x1 = 0.797	1.4294
297.68 K, x1 = 0.697	1.4278
297.69 K, x1 = 0.498	1.4241
297.71 K, x1 = 0.598	1.4262
297.84 K, x1 = 0.898	1.4306
298.31 K, x1 = 0.396	1.4217
298.41 K, x1 = 1	1.4316
298.67 K, x1 = 0.2	1.4158
299.26 K, x1 = 0.1	1.4116
299.58 K, x1 = 0.697	1.4273
299.58 K, x1 = 0.797	1.4288
299.74 K, x1 = 0.498	1.4235
299.74 K, x1 = 0.598	1.4256
299.92 K, x1 = 0.898	1.43
300.25 K, x1 = 1	1.4311
300.61 K, x1 = 0.396	1.4209
300.68 K, x1 = 0.2	1.4151
301.73 K, x1 = 0.1	1.4107
302.04 K, x1 = 1	1.4305

From the NIST ThermoML archive (doi:10.1016/j.fluid.2014.07.036)
